The results in this text go back to US9751870B2, “Oxytocin receptor agonists for the treatment of CNS diseases” (Hoffmann-La Roche Inc., priority 2013, dated 2017).

The test addresses T1, human Oxytocin (OTR) receptor (Homo sapiens, UniProt P30559).
T1 construct: expressed in transfected cells
T1 sequence (P30559 1-389): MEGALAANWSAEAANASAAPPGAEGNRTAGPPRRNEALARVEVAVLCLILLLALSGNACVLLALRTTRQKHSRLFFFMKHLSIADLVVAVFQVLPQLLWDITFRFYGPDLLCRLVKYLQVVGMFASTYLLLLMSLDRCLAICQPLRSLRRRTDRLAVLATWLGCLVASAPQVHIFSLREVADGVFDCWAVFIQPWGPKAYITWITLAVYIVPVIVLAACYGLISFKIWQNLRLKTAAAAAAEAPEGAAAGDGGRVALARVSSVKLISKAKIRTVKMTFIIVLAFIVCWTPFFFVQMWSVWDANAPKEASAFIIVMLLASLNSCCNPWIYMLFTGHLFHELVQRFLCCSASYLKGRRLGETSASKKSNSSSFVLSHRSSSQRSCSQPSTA
Put plainly: Calcium flux assay (FLIPR), agonist mode, CHO cells expressing human OTR. Type of test: cell-based. The note with it: calcium flux in CHO cells expressing human OTR, read-out: hEC50. The text has this:
Chinese Hamster Ovary (CHO) cells were transfected with expression plasmids encoding either the human V1a, the human Oxytocin (OTR) or the humanV2 receptor, the latter in combination with the chimeric Gqs5 G protein to redirect the signal to Calcium flux. Stable cells were cloned by limiting dilution to yield monoclonal cell lines expressing either human V1a, human V2+Gqs5 or human OTR receptors and selected based on functional responses detected on a fluorometric imaging plate reader (FLIPR) detecting Calcium flux in the cell after receptor activation. The stable cell lines were grown in F-12 K Nutrient Mixture (Kaighns Modification), containing 10% foetal bovine serum (FBS), 1% penicillin-streptomycin, 1% L-[…], 200 ug/ml Geneticin at 37° C. in a 10% CO2 incubator at 95% humidity.
Calcium Flux Assays Using Fluorescent Imaging (Fluorometric Imaging Plate Reader, FLIPR)
On the afternoon before the assay, cells were plated at a density of 50,000 cells/well into black 96 well plates with clear bottoms to allow cell inspection and fluorescence measurements from the bottom of each well. The density of cells was sufficient to yield a confluent monolayer the next day. Hanks balanced salt solution, without phenol red, containing 20 mM HEPES (pH 7.3) and 2.5 mM probenecid (assay buffer) was prepared fresh for each experiment. Compound dilutions were made using a Beckman Biomek 2000 laboratory automation workstation, in assay buffer containing 1% DMSO. The dye-loading buffer consisted of a final concentration of 2 μM Fluo-4-AM (dissolved in DMSO and pluronic acid) in assay buffer. The existing culture media was removed from the wells and 100 μl of the dye-loading buffer was added to each well and incubated for approximately 60 min at 37° C. in a 5% CO2 incubator at 95% humidity. Once dye-loaded, the cells were washed thoroughly on an Embla cell washer with the assay buffer to remove any unincorporated dye. Exactly 100 μl assay buffer was left in each well.
Each 96 well plate containing dye-loaded cells was placed into the FLIPR machine and the laser intensity set to a suitable level to detect low basal fluorescence. To test compounds as agonists, 25 μl diluted compound was added to the plate 10 seconds into the fluorescent measurements and fluorescent response was recorded for 5 minutes. The fluorescence data was normalized to the endogenous full agonist dose-response set at 100% for the maximum response and 0% for the minimum. Each agonist concentration-response curve was constructed using a four parameter logistic equation with Microsoft Excel XLFit as follows: Y=Minimum+((Maximum−Minimum)/(1+10^(LogEC50-X)nH)), where y is the % normalized fluorescence, minimum is the minimum y, maximum is the maximum y, log EC50 is the log10 concentration which produces 50% of the maximum induced fluorescence, x is the log10 of the concentration of the agonist compound and H is the slope of the curve (the Hill Coefficient). The maximum value gives the efficacy of the agonist test compound in percentage. The concentration of agonist that produced a half-maximal response is represented by the EC50 value, the logarithm of which yielded the pEC50 value.
Background: Calcium assays in cells follow changes in intracellular calcium, usually with a dye or a luminescent sensor.

pEC50: −log10 of the molar value.

Turning to `O=S(=O)(Nc1ccnn1-c1ccccn1)c1ccc(Cl)cc1` [Example 1, 4-Chloro-N-(2-pyridin-2-yl-2H-pyrazol-3-yl)-benzenesulfonamide], the pEC50 was 7.72.

For `O=S(=O)(Nc1ccnn1-c1ccccn1)c1ccc(C(F)(F)F)cc1` [Example 2, N-(2-Pyridin-2-yl-2H-pyrazol-3-yl)-4-trifluoromethyl-benzenesulfonamide], the pEC50 is 8.10.

As to `CCc1ccc(S(=O)(=O)Nc2ccnn2-c2ccccn2)cc1` [Example 3, 4-Ethyl-N-(2-pyridin-2-yl-2H-pyrazol-3-yl)-benzenesulfonamide], the pEC50 is 7.80.

On to `CCCc1ccc(S(=O)(=O)Nc2ccnn2-c2ccccn2)cc1` [Example 4, 4-Propyl-N-(2-pyridin-2-yl-2H-pyrazol-3-yl)-benzenesulfonamide], for which the pEC50 is 7.47.

Take `O=S(=O)(Nc1ccnn1-c1ccccn1)c1ccc(C(F)(F)F)cc1Cl` [Example 5, 2-Chloro-N-(2-pyridin-2-yl-2H-pyrazol-3-yl)-4-trifluoromethyl-benzenesulfonamide]: the pEC50 was 7.04.

`O=S(=O)(Nc1ccnn1-c1ccccn1)c1ccc(OC(F)F)cc1` [Example 6, 4-Difluoromethoxy-N-(2-pyridin-2-yl-2H-pyrazol-3-yl)-benzenesulfonamide]: the pEC50 was 6.97.

Consider `O=S(=O)(Nc1ccnn1-c1ccc(F)cc1)c1ccc(Cl)cc1` [Example 7, 4-Chloro-N-[2-(4-fluoro-phenyl)-2H-pyrazol-3-yl]-benzenesulfonamide], for which the pEC50 is 5.61.

As for `N#Cc1ccc(S(=O)(=O)Nc2ccnn2-c2ccccn2)cc1` [Example 8, 4-Cyano-N-(2-pyridin-2-yl-2H-pyrazol-3-yl)-benzenesulfonamide], the pEC50 is 7.09.

As for `Cc1csc(-n2nccc2NS(=O)(=O)c2ccc(C(F)(F)F)cc2)n1` [Example 9, N-[2-(4-Methyl-thiazol-2-yl)-2H-pyrazol-3-yl]-4-trifluoromethyl-benzenesulfonamide], the pEC50 is 6.28.

As for `Cc1csc(-n2nccc2NS(=O)(=O)c2ccc(Cl)cc2)n1` [Example 10, 4-Chloro-N-[2-(4-methyl-thiazol-2-yl)-2H-pyrazol-3-yl]-benzenesulfonamide], the pEC50 is 6.79.

Consider `CCc1ccc(S(=O)(=O)Nc2ccnn2-c2nc(C)cs2)cc1` [Example 11, 4-Ethyl-N-[2-(4-methyl-thiazol-2-yl)-2H-pyrazol-3-yl]-benzenesulfonamide], for which the pEC50 is 6.95.

Consider `O=S(=O)(Nc1ccnn1-c1ncccn1)c1ccc(C(F)(F)F)cc1` [Example 12, N-(2-Pyrimidin-2-yl-2H-pyrazol-3-yl)-4-trifluoromethyl-benzenesulfonamide], for which the pEC50 was 5.74.

As for `O=S(=O)(Nc1ccnn1-c1ccccn1)c1ccc(Cl)cc1Cl` [Example 13, 2,4-Dichloro-N-(2-pyridin-2-yl-2H-pyrazol-3-yl)-benzenesulfonamide], the pEC50 is 7.77.

With `CC(F)c1ccc(S(=O)(=O)Nc2ccnn2-c2ccccn2)cc1` (stereo not shown) [Example 15, 4-(1-Fluoro-ethyl)-N-(2-pyridin-2-yl-2H-pyrazol-3-yl)-benzenesulfonamide], the pEC50 was 7.08.

Regarding `Cc1ccnc(-n2nccc2NS(=O)(=O)c2ccc(C(F)(F)F)cc2)c1` [Example 16, N-[2-(4-Methyl-pyridin-2-yl)-2H-pyrazol-3-yl]-4-trifluoromethyl-benzenesulfonamide], the pEC50 was 7.77.

Consider `Cc1ccnc(-n2nccc2NS(=O)(=O)c2ccc(Cl)cc2)c1` [Example 17, 4-Chloro-N-[2-(4-methyl-pyridin-2-yl)-2H-pyrazol-3-yl]-benzenesulfonamide], for which the pEC50 was 7.80.

For the molecule `CCc1ccc(S(=O)(=O)Nc2ccnn2-c2cc(C)ccn2)cc1` [Example 18, 4-Ethyl-N-[2-(4-methyl-pyridin-2-yl)-2H-pyrazol-3-yl]-benzenesulfonamide], the pEC50 is 7.70.

Turning to `Cc1ccnc(-n2nccc2NS(=O)(=O)c2ccc(C#N)cc2)c1` [Example 19, 4-Cyano-N-[2-(4-methyl-pyridin-2-yl)-2H-pyrazol-3-yl]-benzenesulfonamide], the pEC50 was 7.20.

For the molecule `O=S(=O)(Nc1ccnn1-c1ccccn1)c1ccc(SC(F)(F)F)cc1` [Example 20, N-(2-Pyridin-2-yl-2H-pyrazol-3-yl)-4-trifluoromethylsulfanyl-benzenesulfonamide], the pEC50 was 7.33.

Turning to `O=S(=O)(Nc1ccnn1-c1ccnc(C(F)(F)F)n1)c1ccc(C(F)(F)F)cc1` [Example 21, 4-Trifluoromethyl-N-[2-(2-trifluoromethyl-pyrimidin-4-yl)-2H-pyrazol-3-yl]-benzenesulfonamide], the pEC50 was 5.80.

As for `O=S(=O)(Nc1ccnn1-c1ccccn1)c1ccc(C(F)(F)F)cc1F` [Example 22, 2-Fluoro-N-(2-pyridin-2-yl-2H-pyrazol-3-yl)-4-trifluoromethyl-benzenesulfonamide], the pEC50 is 6.48.

As for `O=S(=O)(Nc1ccnn1-c1ccccn1)c1ccc(S(=O)(=O)C(F)(F)F)cc1` [Example 23, N-(2-Pyridin-2-yl-2H-pyrazol-3-yl)-4-trifluoromethanesulfonyl-benzenesulfonamide], the pEC50 was 6.12.

In the case of `O=S(=O)(Nc1ccnn1-c1ccccn1)c1ccc(C(F)(F)F)c(F)c1` [Example 24, 3-Fluoro-N-(2-pyridin-2-yl-2H-pyrazol-3-yl)-4-trifluoromethyl-benzenesulfonamide], the pEC50 was 6.10.

Regarding `CCc1ccc(S(=O)(=O)Nc2ccnn2-c2nc(C3CC3)ns2)cc1` [Example 25, N-[2-(3-Cyclopropyl-[1,2,4]thiadiazol-5-yl)-2H-pyrazol-3-yl]-4-ethyl-benzenesulfonamide], the pEC50 is 5.80.

On to `Cc1csc(-n2nccc2NS(=O)(=O)c2ccc(Cl)cc2F)n1` [Example 26, 4-Chloro-2-fluoro-N-[2-(4-methyl-thiazol-2-yl)-2H-pyrazol-3-yl]-benzenesulfonamide], for which the pEC50 is 6.82.
